The target of data set [1] is T1, Sphingosine 1-phosphate receptor 1 (Homo sapiens, UniProt P21453). As to the kind of experiment: Agonist activity at S1P1 receptor assessed as induction of [35S]GTP-gamma-S binding. The class given is functional. A general note: GTPγS resists hydrolysis and so accumulates on activated G proteins.
Data set [2] has as its target T2, Sphingosine 1-phosphate receptor 3 (Homo sapiens, UniProt Q99500). Kind of data set: Agonist activity at S1P3 receptor assessed as induction of [35S]GTP-gamma-S binding. The data set is classed as functional.
The target in data set [3] is T3, Sphingosine 1-phosphate receptor 5 (Homo sapiens, UniProt Q9H228). Kind of data set: Agonist activity at S1P5 receptor assessed as induction of [35S]GTP-gamma-S binding. The class given is functional.
T3 sequence (Q9H228 whole entry): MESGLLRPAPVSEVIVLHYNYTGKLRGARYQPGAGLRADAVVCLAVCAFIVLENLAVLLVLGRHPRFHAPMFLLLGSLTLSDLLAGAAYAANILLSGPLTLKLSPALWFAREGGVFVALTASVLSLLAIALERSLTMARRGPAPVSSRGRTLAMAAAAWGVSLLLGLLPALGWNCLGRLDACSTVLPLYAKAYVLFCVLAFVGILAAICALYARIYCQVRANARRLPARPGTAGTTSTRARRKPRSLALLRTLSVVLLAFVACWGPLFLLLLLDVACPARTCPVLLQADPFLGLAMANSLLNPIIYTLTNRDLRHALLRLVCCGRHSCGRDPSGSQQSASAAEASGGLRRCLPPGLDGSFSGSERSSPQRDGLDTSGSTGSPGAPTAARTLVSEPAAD
Data set [4] is filed under the species Homo sapiens. Kind of data set: Selectivity for S1P1 receptor over S1P2 receptor.
The species named for data set [5] is Homo sapiens. Kind of data set: Selectivity for S1P1 receptor over S1P5 receptor.
The species named for data set [6] is Homo sapiens. As to the kind of experiment: Selectivity for S1P1 receptor over S1P3 receptor.
Data set [7] concerns Mus musculus. As to the kind of experiment: Lowering of lymphocytes in mouse at 0.3 mg/kg, po. The data set is classed as functional, organism-based. Also on record: dose 0.3 mg/kg.
Data set [8] can be described thus: Oral bioavailability in rat. The class given is ADME, organism-based. The following applies: in vivo.
Data set [9] can be described thus: Half life in rat. The class given is ADME, organism-based. Conditions: in vivo.
The species entered for data set [10] is Homo sapiens. As to the kind of experiment: Selectivity for S1P1 receptor over S1P4 receptor.
For data set [11], the target named is T1, Sphingosine 1-phosphate receptor 1. As to the kind of experiment: Inhibition of S1P1 receptor at 10 uM.
Data set [12] has as its target T2, Sphingosine 1-phosphate receptor 3. Kind of data set: Inhibition of S1P3 receptor at 10 uM.
Data set [13] deals with T3, Sphingosine 1-phosphate receptor 5. Kind of data set: Inhibition of S1P5 receptor at 10 uM.

In general, EC50 refers to the midpoint of the concentration-response curve. By bioavailability is commonly meant the share of a dose that reaches the circulation, judged against a reference dose that is usually intravenous. One may read the half-life as how long it takes for the measured level to halve. The low end stands for rapid decline, the high end for slow decline. Broadly, the inhibition is the drop in the measured response relative to a control, in per cent.

The structures appear in SMILES notation. Active and inactive are the calls of the source. The calls are words filed in the database; no cut-off is given here. Some results are limits rather than exact numbers.

T2 sequence (Q99500 whole entry): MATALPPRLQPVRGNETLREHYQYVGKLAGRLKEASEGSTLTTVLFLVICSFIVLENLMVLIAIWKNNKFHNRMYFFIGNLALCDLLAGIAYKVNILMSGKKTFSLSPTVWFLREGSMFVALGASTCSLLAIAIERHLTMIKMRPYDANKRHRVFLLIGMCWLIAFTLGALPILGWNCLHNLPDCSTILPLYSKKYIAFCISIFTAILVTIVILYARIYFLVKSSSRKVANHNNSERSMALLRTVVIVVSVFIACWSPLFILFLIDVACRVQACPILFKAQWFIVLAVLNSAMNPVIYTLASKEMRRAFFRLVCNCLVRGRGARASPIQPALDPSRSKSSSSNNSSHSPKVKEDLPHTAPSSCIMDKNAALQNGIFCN
T1 sequence (P21453 whole entry): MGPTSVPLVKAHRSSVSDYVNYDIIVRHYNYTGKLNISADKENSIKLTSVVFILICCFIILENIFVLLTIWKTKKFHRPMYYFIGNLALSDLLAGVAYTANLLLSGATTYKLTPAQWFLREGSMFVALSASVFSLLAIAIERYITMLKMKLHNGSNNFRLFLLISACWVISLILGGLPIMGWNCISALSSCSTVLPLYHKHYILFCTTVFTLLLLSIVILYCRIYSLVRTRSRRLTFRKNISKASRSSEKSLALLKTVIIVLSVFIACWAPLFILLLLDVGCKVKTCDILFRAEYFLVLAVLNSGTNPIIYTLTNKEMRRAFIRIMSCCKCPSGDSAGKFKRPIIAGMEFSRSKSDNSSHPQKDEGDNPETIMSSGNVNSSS

In the case of `Cc1cc(CCC(=O)O)ccc1-c1ncc(-c2ccc(OC(C)C)c(C#N)c2)s1`, the EC50 in data set [1] was 0.18 nM; in data set [2], over 10000 nM; in data set [3] it was 120 nM. Moreover, the Selectivity ratio is over 1000 in data set [4], over 600 in [5], over 10000 in data set [6] and over 1000 in data set [10]. The outcome in data set [7] was Active. Also, the bioavailability in data set [8] was 39%. The same compound yielded a half-life in data set [9] of under 1 h.

For `Cc1cc(CCC(=O)O)ccc1-c1csc(-c2cnc(OC(C)C)c(Cl)c2)n1`, the Selectivity ratio in data set [4] and in [10] was over 1000 each time. Further, the values for the inhibition in data set [11], in data set [12] and in data set [13] were 30%, 0% and 6%, respectively.

In the case of `Cc1cc(CCC(=O)O)ccc1-c1nnc(-c2cnc(OC(C)C)c(Cl)c2)o1`, the EC50 in [1] amounted to 19 nM. Further, the Selectivity ratio in data set [4] and in data set [10] was over 1000 each time. Besides, the inhibition in data set [12] was 82%; in data set [13], 44%.

Consider `Cc1cc(CCC(=O)O)ccc1-c1coc(-c2cnc(OC(C)C)c(Cl)c2)n1`, for which, in data set [1], the EC50 amounted to 1000 nM. The Selectivity ratio in [4] and in data set [10] was over 1000 each time. The inhibition in data set [12] turned out to be 8%; in data set [13], 0%.

(Values after ChEMBL document CHEMBL1138961, “Highly selective and potent agonists of sphingosine-1-phosphate 1 (S1P1) receptor” (Bioorg Med Chem Lett, 2006).)
